The values that follow come from patent US20090191253A2 (Creabilis Therapeutics S.P.A., priority 2005, published 2009).

One experiment has as its target T1, CaMK2α (Homo sapiens, UniProt Q9UQM7).
T1 construct: His (N); made in house; host or cells: baculovirus expression system
As to the kind of experiment: Kinase inhibition profiling CaMK2α (IMAP). The format is biochemical.

For the next experiment, the target named is T2, CHK1 (Homo sapiens, UniProt O14757).
T2 construct: His (N); made in house; host or cells: baculovirus expression system
The experiment is described as follows: Kinase inhibition profiling CHK1 (IMAP). Type of experiment: biochemical.

In another experiment the target is T3, PKCε (Homo sapiens, UniProt Q02156).
T3 construct: made in house; host or cells: baculovirus expression system
As to the kind of experiment: Kinase inhibition profiling PKCε (IMAP). Type of experiment: biochemical.

The target of a further experiment is T4, IKKβ (Homo sapiens, UniProt O14920).
T4 construct: Human IKKβ with 662 amino acids were expressed; His (N); made in house; host or cells: insect cells
As to the kind of experiment: Kinase inhibition profiling IKKβ (IMAP). The format is biochemical.

Another experiment addresses T5, JNK2 (Homo sapiens, UniProt P45984).
T5 construct: Human JNK2 containing 424 amino acids was expressed; His (C); made in house; host or cells: E. coli
The experiment is described as follows: Kinase inhibition profiling JNK2 (ELISA). Note: ATP 5 µM. The format is biochemical.

Another experiment addresses T6, KIT (Homo sapiens, UniProt P10721).
T6 construct: made in house; host or cells: baculovirus expression system
The experiment is described as follows: Kinase inhibition profiling KIT (ELISA). Type of experiment: biochemical. A general note: ELISA stands for enzyme-linked immunosorbent assay.

A further experiment concerns the target T7, HMGB1 (Homo sapiens, UniProt P09429).
T7 construct: host or cells: bacteria (inferred from the mention of bacterial contaminants)
As to the kind of experiment: Fluorescence assays of K-252a/HMGB1 interaction. The format is binding.

Another experiment deals with T8, FAK (Homo sapiens, UniProt Q05397).
T8 construct: made in house; host or cells: baculovirus expression system
As to the kind of experiment: Kinase inhibition profiling FAK (ELISA). The format is biochemical.

The target of a further experiment is T9, AurA (Homo sapiens, UniProt O14965).
T9 construct: GST (N); made in house; host or cells: baculovirus expression system
As to the kind of experiment: Kinase inhibition profiling AurA (IMAP). The format is biochemical.

A further experiment deals with T10, TNK1 (Homo sapiens, UniProt Q13470).
T10 construct: Kinase domain (KD) of human TNK [110-394 amino; made in house; host or cells: baculovirus expression system
The experiment is described as follows: Kinase inhibition profiling TNK1 (ELISA). The format is biochemical.

Another experiment deals with TrkC (Homo sapiens, UniProt Q16288). The experiment is described as follows: Kinase inhibition profiling TrkC (ELISA).
A further experiment concerns the target T11, JNK1 (Homo sapiens, UniProt P45983).
T11 construct: Human JNK1 containing 364 amino acids was expressed; His (C); made in house; host or cells: E. coli
As to the kind of experiment: Kinase inhibition profiling JNK1 (ELISA). The format is biochemical.

In experiment [1] the test system is bovine aorta smooth muscle cells (BASMC). The experiment is described as follows: Chemotaxis assay, HMGB1-induced migration (modified Boyden chambers). The format is cell-based. The conditions noted are these: K-252a 3, 10, 30, 100 nM; HMGB-1 25 ng/ml; overnight migration. Here is the method: Chemotaxis assays were performed using a well known and validated protocol (1). Modified Boyden chambers were used with filters having 5-8 μm pore size and treated with collagen I (100 μg/ml in 0.5 M acetic acid) and fibronectin (10 μg/ml, Roche). BASMC (bovine aorta smooth muscle cells) were cultured in serum-free DMEM and a sample of 20,000-40,000 cells was added to the upper well of a Boyden chamber. […] Overnight cell migration was allowed at 37+/−0.5° C., then cells were scraped off and filters were fixed in methanol and stained in a solution of 10% crystal violet in 20% methanol. All experiments were performed at least twice in triplicate. […] Random cell migration, i.e. migration in the absence of chemoattractant, was given the arbitrary value of 100%. Statistical analysis was performed using Student's t test for pairwise comparisons of treatment, or an ANOVA model for the evaluation of treatments with increasing concentrations of a reagent.

Another experiment concerns the target T12, Erk1 (Homo sapiens, UniProt P27361).
T12 construct: Human Erk1 containing 379 amino acids was expressed; His (N); made in house; host or cells: E. coli
The experiment is described as follows: Kinase inhibition profiling Erk1 (IMAP). Type of experiment: biochemical.

The next experiment concerns the target T13, FYN (Homo sapiens, UniProt P06241).
T13 construct: made in house; host or cells: baculovirus expression system
As to the kind of experiment: Kinase inhibition profiling FYN (ELISA). Note: ATP 20 µM. The format is biochemical.

In a further experiment the target is T14, CaMK4 (Homo sapiens, UniProt Q16566).
T14 construct: His (N); made in house; host or cells: baculovirus expression system
As to the kind of experiment: Kinase inhibition profiling CaMK4 (IMAP). The format is biochemical.

The next experiment deals with T15, FMS(CSFR) (Homo sapiens, UniProt P07333).
T15 construct: Cytoplasmic domain of human FMS [538-972 amino; made in house; host or cells: baculovirus expression system
As to the kind of experiment: Kinase inhibition profiling FMS(CSFR) (ELISA). The format is biochemical.

T13 sequence (P06241 whole entry): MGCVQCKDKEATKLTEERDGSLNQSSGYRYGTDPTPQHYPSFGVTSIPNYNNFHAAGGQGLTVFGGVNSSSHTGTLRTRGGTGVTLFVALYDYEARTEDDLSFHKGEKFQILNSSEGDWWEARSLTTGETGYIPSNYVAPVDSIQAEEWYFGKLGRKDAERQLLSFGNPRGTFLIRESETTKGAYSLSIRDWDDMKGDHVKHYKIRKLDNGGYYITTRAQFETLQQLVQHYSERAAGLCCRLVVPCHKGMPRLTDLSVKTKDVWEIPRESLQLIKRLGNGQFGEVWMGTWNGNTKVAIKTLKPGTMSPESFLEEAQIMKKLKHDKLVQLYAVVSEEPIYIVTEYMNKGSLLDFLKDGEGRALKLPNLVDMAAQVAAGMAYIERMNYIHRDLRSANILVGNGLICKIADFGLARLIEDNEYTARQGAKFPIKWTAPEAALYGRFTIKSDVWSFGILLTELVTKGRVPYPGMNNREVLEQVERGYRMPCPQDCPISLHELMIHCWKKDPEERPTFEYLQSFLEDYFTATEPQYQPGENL
T1 sequence (Q9UQM7 whole entry): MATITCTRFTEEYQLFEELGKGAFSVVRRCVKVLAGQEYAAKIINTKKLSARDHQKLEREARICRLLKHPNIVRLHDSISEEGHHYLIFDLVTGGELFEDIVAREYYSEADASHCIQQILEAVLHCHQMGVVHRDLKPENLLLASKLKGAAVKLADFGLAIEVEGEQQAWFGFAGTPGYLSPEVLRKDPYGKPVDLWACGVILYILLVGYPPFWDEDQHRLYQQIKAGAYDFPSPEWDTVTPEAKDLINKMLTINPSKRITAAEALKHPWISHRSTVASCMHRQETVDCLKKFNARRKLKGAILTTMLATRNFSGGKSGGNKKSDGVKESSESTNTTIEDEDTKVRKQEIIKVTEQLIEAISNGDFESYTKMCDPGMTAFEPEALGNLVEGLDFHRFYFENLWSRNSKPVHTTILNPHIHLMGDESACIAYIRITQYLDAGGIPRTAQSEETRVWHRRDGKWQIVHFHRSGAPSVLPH
T5 sequence (P45984 whole entry): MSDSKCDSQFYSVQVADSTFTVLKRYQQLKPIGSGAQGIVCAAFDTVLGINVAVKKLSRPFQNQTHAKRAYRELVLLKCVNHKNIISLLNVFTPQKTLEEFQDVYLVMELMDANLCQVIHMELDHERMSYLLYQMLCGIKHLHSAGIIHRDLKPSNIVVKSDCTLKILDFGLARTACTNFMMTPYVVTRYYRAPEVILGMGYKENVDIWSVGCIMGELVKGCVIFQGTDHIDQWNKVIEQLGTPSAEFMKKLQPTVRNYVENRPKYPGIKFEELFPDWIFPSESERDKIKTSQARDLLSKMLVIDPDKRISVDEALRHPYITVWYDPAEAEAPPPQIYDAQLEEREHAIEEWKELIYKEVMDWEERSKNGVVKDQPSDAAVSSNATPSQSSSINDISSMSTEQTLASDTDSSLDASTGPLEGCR
T9 sequence (O14965 whole entry): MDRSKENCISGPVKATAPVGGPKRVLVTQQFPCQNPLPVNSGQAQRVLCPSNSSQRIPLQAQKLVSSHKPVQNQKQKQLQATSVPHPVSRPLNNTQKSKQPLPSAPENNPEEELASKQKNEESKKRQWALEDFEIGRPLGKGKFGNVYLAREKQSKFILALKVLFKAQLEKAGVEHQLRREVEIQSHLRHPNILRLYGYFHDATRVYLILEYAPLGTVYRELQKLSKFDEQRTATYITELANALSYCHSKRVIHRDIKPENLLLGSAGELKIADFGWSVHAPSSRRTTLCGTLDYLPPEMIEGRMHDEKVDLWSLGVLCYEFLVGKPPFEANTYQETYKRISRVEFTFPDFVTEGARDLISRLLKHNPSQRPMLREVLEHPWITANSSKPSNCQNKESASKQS
T11 sequence (P45983 1-364 limits assumed): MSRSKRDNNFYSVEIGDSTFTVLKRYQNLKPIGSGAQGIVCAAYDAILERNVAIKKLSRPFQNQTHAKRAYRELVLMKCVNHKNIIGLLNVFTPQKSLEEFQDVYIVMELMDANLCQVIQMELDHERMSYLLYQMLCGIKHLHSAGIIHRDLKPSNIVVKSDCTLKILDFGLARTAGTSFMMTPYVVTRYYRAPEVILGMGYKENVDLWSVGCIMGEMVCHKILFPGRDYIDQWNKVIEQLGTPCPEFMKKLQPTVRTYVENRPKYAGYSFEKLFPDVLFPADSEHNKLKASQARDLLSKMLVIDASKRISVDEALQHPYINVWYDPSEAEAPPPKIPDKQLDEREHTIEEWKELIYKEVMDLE
T4 sequence (O14920 1-662 limits assumed): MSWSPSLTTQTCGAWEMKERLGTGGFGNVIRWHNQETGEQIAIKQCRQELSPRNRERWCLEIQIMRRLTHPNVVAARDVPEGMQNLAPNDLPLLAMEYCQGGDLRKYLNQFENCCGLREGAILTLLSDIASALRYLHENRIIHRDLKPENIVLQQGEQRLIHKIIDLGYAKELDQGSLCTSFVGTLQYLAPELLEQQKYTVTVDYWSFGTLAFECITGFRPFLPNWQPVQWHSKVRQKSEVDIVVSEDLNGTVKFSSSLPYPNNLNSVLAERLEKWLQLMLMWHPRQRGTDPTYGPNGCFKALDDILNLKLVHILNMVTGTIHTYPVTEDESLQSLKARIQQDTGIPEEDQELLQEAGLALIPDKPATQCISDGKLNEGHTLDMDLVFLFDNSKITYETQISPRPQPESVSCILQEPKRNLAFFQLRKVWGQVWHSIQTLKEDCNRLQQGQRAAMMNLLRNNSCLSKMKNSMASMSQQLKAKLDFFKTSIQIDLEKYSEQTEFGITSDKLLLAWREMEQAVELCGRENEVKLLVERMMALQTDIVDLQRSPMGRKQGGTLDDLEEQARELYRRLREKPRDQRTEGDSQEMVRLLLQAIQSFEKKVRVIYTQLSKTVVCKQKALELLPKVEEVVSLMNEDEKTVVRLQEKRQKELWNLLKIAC
T14 sequence (Q16566 whole entry): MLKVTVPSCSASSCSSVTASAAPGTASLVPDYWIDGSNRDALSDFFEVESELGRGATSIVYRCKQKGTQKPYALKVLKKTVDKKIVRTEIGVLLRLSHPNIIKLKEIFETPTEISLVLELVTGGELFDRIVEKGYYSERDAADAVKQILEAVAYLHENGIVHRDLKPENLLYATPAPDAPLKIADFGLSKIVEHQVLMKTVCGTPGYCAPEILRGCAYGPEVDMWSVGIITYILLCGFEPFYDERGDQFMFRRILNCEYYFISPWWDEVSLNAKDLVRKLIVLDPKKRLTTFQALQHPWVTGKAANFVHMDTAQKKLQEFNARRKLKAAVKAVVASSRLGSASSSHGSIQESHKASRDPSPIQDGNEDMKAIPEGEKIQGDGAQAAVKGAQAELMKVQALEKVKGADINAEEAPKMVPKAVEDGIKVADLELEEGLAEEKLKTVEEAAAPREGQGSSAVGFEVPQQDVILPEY
T2 sequence (O14757 whole entry): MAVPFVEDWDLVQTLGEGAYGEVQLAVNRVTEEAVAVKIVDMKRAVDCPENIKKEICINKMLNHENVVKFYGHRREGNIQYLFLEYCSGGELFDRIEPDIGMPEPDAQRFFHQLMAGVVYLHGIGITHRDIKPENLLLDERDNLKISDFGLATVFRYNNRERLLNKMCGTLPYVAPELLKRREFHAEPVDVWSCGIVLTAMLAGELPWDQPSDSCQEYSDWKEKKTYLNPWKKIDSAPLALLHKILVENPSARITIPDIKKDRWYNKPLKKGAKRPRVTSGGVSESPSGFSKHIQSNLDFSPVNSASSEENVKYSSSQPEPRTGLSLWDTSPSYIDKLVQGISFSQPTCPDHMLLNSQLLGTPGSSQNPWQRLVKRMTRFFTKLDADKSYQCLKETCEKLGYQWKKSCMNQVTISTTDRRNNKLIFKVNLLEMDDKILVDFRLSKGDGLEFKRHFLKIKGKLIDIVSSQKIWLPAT
T10 sequence (Q13470 110-394): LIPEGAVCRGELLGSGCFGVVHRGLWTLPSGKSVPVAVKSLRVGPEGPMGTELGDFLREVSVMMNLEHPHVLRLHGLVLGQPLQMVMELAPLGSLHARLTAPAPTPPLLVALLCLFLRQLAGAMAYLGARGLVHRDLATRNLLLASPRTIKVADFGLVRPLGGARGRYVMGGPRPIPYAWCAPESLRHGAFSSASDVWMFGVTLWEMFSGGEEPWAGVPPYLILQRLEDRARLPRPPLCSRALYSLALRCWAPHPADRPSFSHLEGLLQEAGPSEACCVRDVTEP
T12 sequence (P27361 whole entry): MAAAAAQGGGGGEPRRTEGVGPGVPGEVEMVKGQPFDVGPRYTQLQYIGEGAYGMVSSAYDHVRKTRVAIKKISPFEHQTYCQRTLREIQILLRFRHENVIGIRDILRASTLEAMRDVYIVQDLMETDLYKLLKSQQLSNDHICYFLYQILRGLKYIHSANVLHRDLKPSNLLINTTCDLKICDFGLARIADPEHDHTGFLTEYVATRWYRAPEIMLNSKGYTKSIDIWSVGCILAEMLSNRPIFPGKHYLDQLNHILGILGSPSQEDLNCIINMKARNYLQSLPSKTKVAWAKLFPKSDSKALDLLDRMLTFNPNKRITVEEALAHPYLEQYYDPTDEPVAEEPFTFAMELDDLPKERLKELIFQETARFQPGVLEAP
T6 sequence (P10721 544-976): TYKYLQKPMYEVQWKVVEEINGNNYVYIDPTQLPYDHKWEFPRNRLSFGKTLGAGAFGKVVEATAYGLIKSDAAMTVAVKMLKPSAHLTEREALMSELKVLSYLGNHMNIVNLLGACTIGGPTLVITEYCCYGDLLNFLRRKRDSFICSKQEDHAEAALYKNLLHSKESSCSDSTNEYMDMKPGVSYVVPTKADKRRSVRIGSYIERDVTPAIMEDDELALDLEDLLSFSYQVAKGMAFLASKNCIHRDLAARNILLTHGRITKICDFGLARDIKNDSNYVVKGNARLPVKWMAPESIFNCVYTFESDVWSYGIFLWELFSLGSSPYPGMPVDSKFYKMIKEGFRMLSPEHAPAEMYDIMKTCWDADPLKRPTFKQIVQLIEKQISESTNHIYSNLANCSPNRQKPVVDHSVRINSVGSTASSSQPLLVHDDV
Experimental for AurA: (§1) Each test compound was weighed and dissolved in DMSO to make 1 mM stock solution. The stock solution was diluted with DMSO to achieve 20 μM. The compound solution was diluted with the assay buffer to achieve 0.8 μM.
Experimental for CHK1: as §1
Experimental for CaMK2α: (§2) In particular, the target kinases were Tyrosine kinases and Serine/Threonine kinases.
as §1
Experimental for CaMK4: as §2, §1
Experimental for Erk1: as §1
Experimental for FAK: as §1
Experimental for FMS(CSFR): as §1
Experimental for FYN: as §2, §1
Experimental for IKKβ: as §1
Experimental for JNK1: as §1
Experimental for JNK2: as §1
Experimental for KIT: as §1
Experimental for PKCε: as §1
Experimental for TNK1: as §2, §1
Experimental for TrkC: as §2, §1

As a reminder, the inhibition is the change of the read-out against control, counted positive when it falls. A higher inhibition goes with a response far below the control. Consider `COC(=O)[C@]1(O)CC2O[C@@]1(C)n1c3ccccc3c3c4c(c5c6ccccc6n2c5c31)C(=O)NC4` [K-252a], for which the inhibition at 0.2 µM against CaMK2α was 83.9%; against CHK1 it was 92.8%; against PKCε, 60.9%; against IKKβ, 2.7%; against JNK2, 91.4%; on KIT it was 87.3%. In addition, the inhibition at 0.2 µM against FAK is 53.5%; at AurA, 91.9%; on TNK1 it was 94.8%; against TrkC, 94.4%; against JNK1 it was 94.3%; on Erk1, 32%. Besides, the inhibition at 0.2 µM on FYN stood at 67.2%; on CaMK4, 0%; at FMS(CSFR) it was 55.7%. Also, on HMGB1, the “direct interaction between K-252a and HMGB1” value is given as “absence of a direct interaction”. Further, the “HMGB1-induced BASMC cell migration” value in experiment [1] was “actively and concentration-dependently (in a nanomolar range) antagonizes HMGB1-induced BASMC cell migration”.
